The test concerns BDF1 mice, Adenocarcinoma 755 s.c., tumor weight T/C. The test can be described thus: NCI In Vivo Anticancer Drug Screen. Data for tumor model Adenocarcinoma 755 (subcutaneous) in B6D2F1 (BDF1) mice. As to conditions: endpoint: mean tumor weight, higher = larger tumour. An outline of the steps: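 Compound activity was tested in mice carrying transplanted tumors. Survival or tumor size was measured, and each value is the treated-group measurement divided by that of the vehicle-treated control group (T/C).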

[1] abbreviates: dose: 25.0 mg/kg/injection, schedule: Q01DX011 (ip), vehicle: carboxymethylcellulose (CMC).
Setting [2] is: dose: 50.0 mg/kg/injection, schedule: Q01DX011 (ip), vehicle: carboxymethylcellulose (CMC).

Values joined by “and” are separate entries in the source; they are usually repeats but may differ in a detail not shown here. Identical values can stand only once.

For `CO[C@@]12[C@H](COC(N)=O)C3=C(C(=O)C(C)=C(N)C3=O)N1C[C@@H]1N[C@@H]12`, the T/C by setting is: (dose: 0.1 mg/kg/injection, schedule: Q01DX011 (ip), vehicle: carboxymethylcellulose (CMC)) 82 % of control; (dose: 0.1 mg/kg/injection, schedule: Q01DX011 (ip), vehicle: methylcellulose (MC)) 60 % of control; (dose: 0.2 mg/kg/injection, schedule: Q01DX011 (ip), vehicle: carboxymethylcellulose (CMC)) 79 % of control; (dose: 0.25 mg/kg/injection, schedule: Q01DX011 (ip), vehicle: carboxymethylcellulose (CMC)) 69 % of control; (dose: 0.32 mg/kg/injection, schedule: Q01DX011 (ip), vehicle: carboxymethylcellulose (CMC)) 92 % of control and 116 % of control; (dose: 0.5 mg/kg/injection, schedule: Q01DX011 (ip), vehicle: carboxymethylcellulose (CMC)) 17 % of control. For the same compound, the T/C is 26 % of control (dose: 0.5 mg/kg/injection, schedule: Q01DX011 (ip), vehicle: methylcellulose (MC)); 63 % of control and 71 % of control (dose: 0.53 mg/kg/injection, schedule: Q01DX011 (ip), vehicle: carboxymethylcellulose (CMC)); 22 % of control (dose: 0.82 mg/kg/injection, schedule: Q01DX011 (ip), vehicle: carboxymethylcellulose (CMC)); 8 % of control (dose: 1.0 mg/kg/injection, schedule: Q01DX011 (ip), vehicle: carboxymethylcellulose (CMC)); 12 % of control (dose: 1.0 mg/kg/injection, schedule: Q01DX011 (ip), vehicle: methylcellulose (MC)); 14 % of control (dose: 1.02 mg/kg/injection, schedule: Q01DX011 (ip), vehicle: carboxymethylcellulose (CMC)). In addition, the T/C (dose: 1.36 mg/kg/injection, schedule: Q01DX011 (ip), vehicle: carboxymethylcellulose (CMC)) was 5 % of control; the T/C (dose: 2.0 mg/kg/injection, schedule: Q01DX011 (ip), vehicle: carboxymethylcellulose (CMC)) was 1 % of control; the T/C (dose: 180.0 micrograms/kg/injection, schedule: Q01DX011 (ip), vehicle: carboxymethylcellulose (CMC)) is 89 % of control; the T/C (dose: 300.0 micrograms/kg/injection, schedule: Q01DX011 (ip), vehicle: carboxymethylcellulose (CMC)) was 86 % of control; the T/C (dose: 450.0 micrograms/kg/injection, schedule: Q01DX011 (ip), vehicle: carboxymethylcellulose (CMC)) is 24 % of control and 29 % of control; the T/C (dose: 512.0 micrograms/kg/injection, schedule: Q01DX011 (ip), vehicle: carboxymethylcellulose (CMC)) was 87 % of control. In addition, the T/C is, setting by setting: (dose: 900.0 micrograms/kg/injection, schedule: Q01DX011 (ip), vehicle: carboxymethylcellulose (CMC)) 5 % of control; (dose: 1025.0 micrograms/kg/injection, schedule: Q01DX011 (ip), vehicle: carboxymethylcellulose (CMC)) 63 % of control; (dose: 2050.0 micrograms/kg/injection, schedule: Q01DX011 (ip), vehicle: carboxymethylcellulose (CMC)) 8 % of control.
Consider `Cn1c(=O)c2ncn(CC(=O)O)c2n(C)c1=O`, for which the T/C (dose: 30.0 mg/kg/injection, schedule: Q01DX011 (ip), vehicle: carboxymethylcellulose (CMC)) is 45 % of control; the T/C (dose: 60.0 mg/kg/injection, schedule: Q01DX011 (ip), vehicle: carboxymethylcellulose (CMC)) is 156 % of control; the T/C (dose: 120.0 mg/kg/injection, schedule: Q01DX011 (ip), vehicle: carboxymethylcellulose (CMC)) is 99 % of control; the T/C (dose: 240.0 mg/kg/injection, schedule: Q01DX011 (ip), vehicle: carboxymethylcellulose (CMC)) is 120 % of control.
`CC(=O)OCC(=O)[C@@]1(O)CC[C@H]2[C@@H]3CCC4=CC(=O)C=C[C@]4(C)[C@H]3C(=O)C[C@@]21C`: the T/C was 68 % of control (dose: 0.9 mg/kg/injection, schedule: Q01DX011 (sc), vehicle: steriod suspending solution); 72 % of control (dose: 1.7 mg/kg/injection, schedule: Q01DX011 (sc), vehicle: steriod suspending solution); 76 % of control (dose: 3.5 mg/kg/injection, schedule: Q01DX011 (sc), vehicle: steriod suspending solution); 64 % of control (dose: 3.7 mg/kg/injection, schedule: Q01DX011 (sc), vehicle: steriod suspending solution); 106 % of control (dose: 7.0 mg/kg/injection, schedule: Q01DX011 (sc), vehicle: steriod suspending solution); 39 % of control (dose: 7.1 mg/kg/injection, schedule: Q01DX011 (sc), vehicle: steriod suspending solution). Besides, the T/C is 50 % of control (dose: 7.5 mg/kg/injection, schedule: Q01DX011 (sc), vehicle: steriod suspending solution); 52 % of control (dose: 14.0 mg/kg/injection, schedule: Q01DX011 (sc), vehicle: steriod suspending solution); 44 % of control (dose: 14.3 mg/kg/injection, schedule: Q01DX011 (sc), vehicle: steriod suspending solution); 27 % of control and 33 % of control (dose: 15.0 mg/kg/injection, schedule: Q01DX011 (sc), vehicle: steriod suspending solution); 19 % of control and 26 % of control and 27 % of control (dose: 28.7 mg/kg/injection, schedule: Q01DX011 (sc), vehicle: steriod suspending solution); 13 % of control and 16 % of control (dose: 30.0 mg/kg/injection, schedule: Q01DX011 (sc), vehicle: steriod suspending solution). Besides, the T/C runs as follows: (dose: 57.5 mg/kg/injection, schedule: Q01DX011 (sc), vehicle: steriod suspending solution) 3 % of control and 11 % of control and 17 % of control; (dose: 60.0 mg/kg/injection, schedule: Q01DX011 (sc), vehicle: steriod suspending solution) 12 % of control; (dose: 115.0 mg/kg/injection, schedule: Q01DX011 (sc), vehicle: steriod suspending solution) 5 % of control.
`O=S(=O)(NCc1ccccn1)c1ncnc2nc[nH]c12`: the T/C runs as follows: (dose: 12.0 mg/kg/injection, schedule: Q01DX011 (ip), vehicle: carboxymethylcellulose (CMC)) 119 % of control; under setting [1], 101 % of control; under setting [2], 99 % of control.
With `Nc1nc(NCc2ccccc2)cc(=O)[nH]1`, the T/C is 66 % of control (dose: 55.0 mg/kg/injection, schedule: Q01DX011 (ip), vehicle: methylcellulose (MC)) and 49 % of control (dose: 165.0 mg/kg/injection, schedule: Q01DX011 (ip), vehicle: methylcellulose (MC)).
Take `CC1(O)CC([CH2][Hg][I])OC([CH2][Hg][I])C1` (stereo unspecified): the T/C was 96 % of control under setting [1] and 67 % of control under setting [2].
On to `COc1cc2c3c(c4ccc(OC)c(OC)c4c2cc1OC)CN1CCC[C@@H]1C3`, for which the T/C runs as follows: (dose: 5.0 mg/kg/injection, schedule: Q02DX006 (ip), vehicle: water) 65 % of control; (dose: 10.0 mg/kg/injection, schedule: Q02DX006 (ip), vehicle: water) 52 % of control; (dose: 15.0 mg/kg/injection, schedule: Q02DX006 (ip), vehicle: water) 33 % of control; (dose: 20.0 mg/kg/injection, schedule: Q02DX006 (ip), vehicle: water) 21 % of control.

As usually defined, the T/C is the result in the treated group divided by that in the control group, in per cent.

The values are drawn from PubChem BioAssay AID180 (DTP/NCI, 2004).
